Columns and labels:
Format in all cases: cell-based
GIST882 cell line [1] = assay: Cancer cell cytotoxicity assay (sulforhodamine B); conditions: for IC50: Homo sapiens, 96 h, GIST882, 4 days, read-out: IC50 c-kit GIST882
Experimental: To validate the hypothesis that the designed c-kit/PDGFR tyrosine kinase inhibitors mediate GIST882 cell killing and PDGFR-mediated cell killing of pancreatic cancer cell lines (CFPAC-1, PANC-1 and MIA PaCa-2), an in vitro cytotoxicity assay was performed. The GIST882 cell line used in this study has a c-kit gain-of-function mutation (K642E). […] First the cells were cultured. GIST882 cells were provided by Dr. Jonathan A. Fletcher (Dana-Farber Cancer Institute, Boston, Mass.). PANC-1 and MIAPaCa-2 cells were provided by Dr. Daniel Von Hoff (Arizona Cancer Center, Tucson, Ariz.). […] All the cell lines were incubated in a humidified incubator at 37° C. with 5% CO2 atmosphere.
(§1) After incubation for 4 days at 37° C. in a humidified incubator, the cells were fixed with 10% Trichloroacetic acid solution (Catalog No. 490-10, Sigma). Subsequently, they were labeled with 0.04% Sulforhodamine B (S9012, Sigma) in 1% acetic acid. After multiple washes to remove excess dye, 100 μl of 50 mM Tris solution was added to each well in order to dissolve the dye. The absorbance of each well was read on a plate reader (Wallac Vector^2, PerkinElmer) at the wavelength of 570 nm. Data were expressed as the percentage of survival of control calculated from the absorbance corrected for background absorbance. The surviving percent of cells was determined by dividing the mean absorbance values of the […] by the mean absorbance values of the control and multiplying by 100.

GIST882 cell line [2] = assay: GIST882 cell growth assay (Cell-Titer-Glo); conditions: for IC50: Homo sapiens, GIST882, 96 hours
Experimental: (§2) Briefly, cells are seeded into 96-well, tissue-culture treated, opaque white plates (Thermo Electron, Vantaa, Finland), at between 5000 and 7500 cells per well, depending on the speed of cell proliferation, in 100 μl of appropriate growth medium (determined by the ATCC). Cells are then exposed to the appropriate concentration of drug or an equal amount of DMSO (drug diluent) and allowed to grow in its presence for 96 hours. Following this, 100 μl of Cell-Titer-Glo reagent (Promega, Inc., Madison, Wis.) is added to each well. Plates are then shaken for 2 minutes at room temperature to allow for cell lysis and incubated for 10 minutes to stabilize the luminescent signal. Similar to the Kinase-Glo assay reagent, this reagent contains both luciferase enzyme and its substrate luciferin. Luciferase, activated by ATP in the cell lysate, catalyzes the conversion of luciferin to oxyluciferin, a reaction which produces light. The amount of light produced is proportionate to the amount of ATP in the cell lysate, which is itself proportional to cell number and gives an index of cellular proliferation.
as §2, with “Various compounds of the invention, including (IV-1-3) (also referred to as HPK16), (III-1-3) (also referred to as HPK56), (III-1-4) (also referred to as HPK57), (III-1-5) (also referred to as HPK59), and (II-2-7) (also referred to as HPK61) were tested for activity against GIST tumor cells using the GIST882 cell line. Briefly,” for “Briefly,”

PANC-1 cells = assay: Cancer cell cytotoxicity assay (sulforhodamine B); conditions: Homo sapiens, 96 h; PANC-1, 4 days; read-out: IC50 PDGFR PANC-1
Experimental: (§3) To validate the hypothesis that the designed c-kit/PDGFR tyrosine kinase inhibitors mediate GIST882 cell killing and PDGFR-mediated cell killing of pancreatic cancer cell lines (CFPAC-1, PANC-1 and MIA PaCa-2), an in vitro cytotoxicity assay was performed. The GIST882 cell line used in this study has a c-kit gain-of-function mutation (K642E). The assay utilized the Cell Titer 965 Non-Radioactive Cell Proliferation Assay (Promega Corp., Madison, Wis.). First the cells were cultured. GIST882 cells were provided by Dr. Jonathan A. Fletcher (Dana-Farber Cancer Institute, Boston, Mass.). PANC-1 and MIAPaCa-2 cells were provided by Dr. Daniel Von Hoff (Arizona Cancer Center, Tucson, Ariz.). GIST882 cells were cultured in RPMI 1640 medium (Cat #21870-076, Invitrogen Corporation) supplemented with 300 mg/L L-glutamine, 100 unit/ml penicillin, 100 μg/ml streptomycin and 15% fetal bovine serum. PANC-1 and MIAPaCa-2 cells were maintained in RPMI 1640 medium (cat #10-040, Mediatech, Inc.) supplemented with 100 unit/ml penicillin, 100 μg/ml streptomycin and 10% fetal bovine serum. All the cell lines were incubated in a humidified incubator at 37° C. with 5% CO2 atmosphere.
as §1, with “Cells were plated at a density of 2000 to 10000 cells per well, depending on their growth rate, in 0.1 mL medium on day 0 in 96-well Falcon microtiter plates (#3072, Becton-Dickinson Labware, Lincoln Park, N.J.). On day 1, 10 μL of serial dilutions of the individual compounds were added to the plates in replicates of 4. After incubation” for “After incubation”

MIAPaCa-2 cells = assay: Cancer cell cytotoxicity assay (sulforhodamine B); conditions: Homo sapiens, MIA PaCa-2, 96 h; MIAPaCa-2, 4 days; read-out: IC50 PDGFR MIAPaCa
Experimental: as §3
as §1, with “Cells were plated at a density of 2000 to 10000 cells per well, depending on their growth rate, in 0.1 mL medium on day 0 in 96-well Falcon microtiter plates (#3072, Becton-Dickinson Labware, Lincoln Park, N.J.). On day 1, 10 μL of serial dilutions of the individual compounds were added to the plates in replicates of 4. After incubation” for “After incubation”

Row | Compound | IC50 (GIST882 cell line [1]) | IC50 (GIST882 cell line [2]) | IC50 (PANC-1 cells) | IC50 (MIAPaCa-2 cells) | cells alive at day 4 (GIST882 cell line [1]; GIST882, day 4) | inhibitory activity in GIST882 cell line (in words) (GIST882 cell line [2]; FIG. 29, 96 hours)
1 | COc1cc2ncnc(N3CCN(C(=S)Nc4ccc(S(=O)(=O)Nc5ncccn5)cc4)CC3)c2cc1OC [HPK16, 4-(6,7-Dimethoxy-quinazolin-4-yl)-piperazine-1-carbothioic acid [4-(pyrimidin-2-ylsulfamoly)-phenyl]-amide] | 50 µM | 50 µM | > 50 µM | > 50 µM |  | 
2 | S=C(NCc1ccc2c(c1)OCO2)N1CCN(c2ncnc3c2oc2ccccc23)CC1 [HPK56, 4-Benzo[4,5]furo[3,2-d]pyrimidin-4-yl-piperazine-1-carbothioic acid (benzo[1,3]dioxol-5-ylmethyl)-amide] | 1.6 µM | 1.6 µM | 3 µM | 2.1 µM | 5% | highest inhibitory activity
3 | COc1cc2[nH]c3ncnc(N4CCN(C(=S)Nc5ccc(S(=O)(=O)Nc6ncccn6)cc5)CC4)c3c2cc1OC [HPK62, 4-(6,7-Dimethoxy-9H-1,3,9-triaza-fluoren-4-yl)-piperazine-1-carbothioic acid [4-(pyrimidin-2-ylsulfamoyl)-phenyl]-amide] | 28 µM | 28 µM | > 50 µM | > 50 µM |  | 

— patent US8552018B2, “Substituted tricyclic compounds as protein kinase inhibitors” (Arizona Board of Regents on behalf of the University of …, priority 2003, dated 2013)
